# Key:
# Format in all cases: in vivo
# Bromus sterilis = assay: greenhouse post-emergence treatment, BROST
# Description: (§1) The culture containers used were plastic pots containing loamy sand with approximately 3.0% of humus as substrate. The seeds of the test plants were sown separately for each species.
# (§2) To this end, the test plants were either sown directly, and grown in the same containers, or they were first grown separately as seedlings and transplanted into the test containers a few days prior to treatment.
# (§3) Depending on the species, the plants were kept at 10-25° C. and 20-35° C., respectively.
# (§4) The test period extended over 2 to 4 weeks. During this time, the plants were tended and their response to the individual treatments was evaluated.
# (§5) Evaluation was carried out using a scale from 0 to 100. 100 means no emergence of the plants, or complete destruction of at least the above-ground parts, and 0 means no damage or normal course of growth. A good herbicidal activity is given at values of at least 70, and very good herbicidal activity is given at values of at least 85.
# (§6) In the examples, the solvent used was water.
# (§7) In the examples below, using the method of S. R. Colby (1967) “Calculating synergistic and antagonistic responses of herbicide combinations”, Weeds 15, p. […] E=X+Y−(X·Y/100) where X=effect in percent using herbicide A at an application rate a; • Y=effect in percent using herbicide B at application rate b; • E=expected effect (in %) of herbicide A+herbicide B at application rates a+b.
# Avena fatua = assay: greenhouse post-emergence treatment, AVEFA; details: Avena fatua, 480 h, AVEFA, 20 DAT
# Description: as §1, §2, §3, §4, §5, §6, §7
# Papaver rhoeas = assay: greenhouse post-emergence treatment, PAPRH; details: Papaver rhoeas, 480 h, PAPRH, 20 DAT
# Description: as §1
# (§8) For the post-emergence treatment, the test plants were grown to a plant height of from 3 to 15 cm, depending on the plant habit, and only then treated with the active compounds which had been suspended or emulsified in water. To this end, the test plants were either sown directly, and grown in the same containers, or they were first grown separately as seedlings and transplanted into the test containers a few days prior to treatment.
# as §3, §4, §5
# (§9) The respective stated components A and B, and if appropriate, C were formulated as a 10% by weight strength emulsion concentrate and, with addition of the amount of solvent system, introduced into the spray liquor used for applying the active compound. In the examples, the solvent used was water.
# (§10) In the examples below, using the method of S. R. Colby (1967) “Calculating synergistic and antagonistic responses of herbicide combinations”, Weeds 15, p. 22ff., the value E, which is expected if the activity of the individual active compounds is only additive, was calculated. E=X+Y−(X·Y/100) where X=effect in percent using herbicide A at an application rate a; • Y=effect in percent using herbicide B at application rate b; • E=expected effect (in %) of herbicide A+herbicide B at application rates a+b.
# Brachiaria decumbens = assay: greenhouse post-emergence treatment, BRADC
# Description: as §1, §8, §3, §4, §5, §9, §10
# Poa annua = assay: greenhouse post-emergence treatment, POAAN; details: Poa annua, 480 h
# Description: as §1, §8, §3, §4, §5, §9, §10
# Lolium multiflorum = assay: greenhouse post-emergence treatment, LOLMU; details: Lolium multiflorum, 480 h, cycloxydim solo (EC 100 g/l), 12.5 gai/ha, 20 DAT, LOLMU
# Description: as §1, §2, §3, §4, §5, §6, §7
# Matricaria chamomilla = assay: greenhouse post-emergence treatment, MATCH; details: Matricaria chamomilla, 480 h
# Description: as §1, §8, §3, §4, §5, §9, §10
# Polygonum aviculare = assay: greenhouse post-emergence treatment, POLAV; details: POLAV, 20 DAT
# Description: as §1, §8, §3, §4, §5, §9, §10
# Polygonum convolvulus = assay: greenhouse post-emergence treatment, POLCO; details: Fallopia convolvulus, 480 h
# Description: as §1, §8, §3, §4, §5, §9, §10
# [1] = solo cycloxydim (EC 100 g/l) 12.5 gai/ha
# [2] = cycloxydim solo (EC 100 g/l), 12.5 gai/ha
# [3] = solo cycloxydim (EC 100 g/l) 100 gai/ha
smiles,measurement,setting,value
CCCC(=NOCC)C1=C(O)CC(C2CCCSC2)CC1=O (stereo not shown) [cycloxydim],% activity,"Bromus sterilis; BROST, 20 DAT, solo cycloxydim (EC 100 g/l) 12.5 gai/ha",25%
same,pest or weed control at 12.5 g/ha,"Bromus sterilis; Bromus sterilis, 480 h",25%
same,pest or weed control at 12.5 g/ha,Avena fatua; [1],20%
same,pest or weed control at 12.5 g/ha,Avena fatua; [2],20%
same,pest or weed control at 12.5 g/ha,Papaver rhoeas; [1],0%
same,pest or weed control at 100 g/ha,Papaver rhoeas; [3],0%
same,% activity,"Brachiaria decumbens; BRADC, 20 DAT, solo cycloxydim (EC 100 g/l) 12.5 gai/ha",65%
same,pest or weed control at 12.5 g/ha,"Brachiaria decumbens; Urochloa decumbens, 480 h",65%
same,pest or weed control at 12.5 g/ha,Poa annua,0%
same,pest or weed control at 25 g/ha,Poa annua,0%
same,pest or weed control at 50 g/ha,Poa annua,0%
same,pest or weed control at 100 g/ha,Poa annua,0%
same,pest or weed control at 12.5 g/ha,Lolium multiflorum,90%
same,pest or weed control at 12.5 g/ha,Matricaria chamomilla,0%
same,pest or weed control at 25 g/ha,Matricaria chamomilla,0%
same,pest or weed control at 50 g/ha,Matricaria chamomilla,0%
same,pest or weed control at 100 g/ha,Matricaria chamomilla,0%
same,% activity,Polygonum aviculare; [1],0%
same,% activity,Polygonum aviculare; solo cycloxydim (EC 100 g/l) 25 gai/ha,0%
same,% activity,Polygonum aviculare; solo cycloxydim (EC 100 g/l) 50 gai/ha,0%
same,% activity,Polygonum aviculare; [3],0%
same,% activity,Polygonum aviculare; [2],0%
same,% activity,"Polygonum aviculare; cycloxydim solo (EC 100 g/l), 25 gai/ha",0%
same,% activity,"Polygonum aviculare; cycloxydim solo (EC 100 g/l), 100 gai/ha",0%
same,pest or weed control at 12.5 g/ha,Polygonum convolvulus,0%
same,pest or weed control at 25 g/ha,Polygonum convolvulus,0%
same,pest or weed control at 50 g/ha,Polygonum convolvulus,0%
same,pest or weed control at 100 g/ha,Polygonum convolvulus,0%

# Source: patent US10966426B2, “Herbicidal compositions comprising phenylpyrimidines” (BASF SE, priority 2016, dated 2021)
